The NIST ThermoML archive (doi:10.1016/j.jct.2006.08.008)

Assays:
[1] = mn = molality of the nth substance listed, in mol/kg; conditions: 350 kPa, Liquid
[2] = molar heat capacity at constant pressure; mn = molality of the nth substance listed, in mol/kg; conditions: 350 kPa, Liquid

N[C@@H](CC(=O)O)C(=O)O [L-aminosuccinic acid] + O
Conditions	mass density, m1 = 0.002 [kg/m3]	mass density, m1 = 0.004 [kg/m3]	mass density, m1 = 0.00601 [kg/m3]	mass density, m1 = 0.00801 [kg/m3]	mass density, m1 = 0.01 [kg/m3]	molar heat capacity at constant pressure, m1 = 0.002 [J/K/mol]	molar heat capacity at constant pressure, m1 = 0.004 [J/K/mol]	molar heat capacity at constant pressure, m1 = 0.00601 [J/K/mol]	molar heat capacity at constant pressure, m1 = 0.00801 [J/K/mol]	molar heat capacity at constant pressure, m1 = 0.01 [J/K/mol]
[1], 278.15 K	1000.34	1000.29	1000.42	1000.62	1000.79	–	–	–	–	–
[1], 283.15 K	1000.09	1000.05	1000.2	1000.36	1000.48	–	–	–	–	–
[1], 288.15 K	999.47	999.41	999.59	999.76	999.84	–	–	–	–	–
[1], 298.15 K	997.39	997.34	997.51	997.69	997.73	–	–	–	–	–
[1], 308.15 K	994.35	994.31	994.5	994.64	994.7	–	–	–	–	–
[1], 318.15 K	990.53	990.51	990.66	990.76	990.87	–	–	–	–	–
[1], 328.15 K	985.99	986.02	986.15	986.25	986.33	–	–	–	–	–
[1], 338.15 K	980.85	980.89	981.01	981.13	981.18	–	–	–	–	–
[1], 348.15 K	975.14	975.19	975.26	975.41	975.51	–	–	–	–	–
[1], 358.15 K	968.93	968.98	969.03	969.18	969.3	–	–	–	–	–
[1], 368.15 K	962.17	962.28	962.3	962.49	962.59	–	–	–	–	–
[2], 278.15 K	–	–	–	–	–	75.71	75.71	75.71	75.71	75.71
[2], 283.15 K	–	–	–	–	–	75.54	75.54	75.54	75.54	75.54
[2], 288.15 K	–	–	–	–	–	75.42	75.42	75.43	75.43	75.42
[2], 293.15 K	–	–	–	–	–	75.34	75.34	75.35	75.35	75.35
[2], 298.15 K	–	–	–	–	–	75.29	75.29	75.3	75.3	75.3
[2], 303.15 K	–	–	–	–	–	75.26	75.26	75.27	75.27	75.27
[2], 308.15 K	–	–	–	–	–	75.25	75.25	75.25	75.26	75.26
[2], 313.15 K	–	–	–	–	–	75.25	75.25	75.25	75.26	75.26
[2], 318.15 K	–	–	–	–	–	75.26	75.26	75.27	75.27	75.27
[2], 323.15 K	–	–	–	–	–	75.28	75.28	75.29	75.29	75.29
[2], 328.15 K	–	–	–	–	–	75.31	75.32	75.32	75.33	75.33
[2], 333.15 K	–	–	–	–	–	75.35	75.36	75.36	75.37	75.37
[2], 338.15 K	–	–	–	–	–	75.4	75.41	75.41	75.41	75.42
[2], 343.15 K	–	–	–	–	–	75.46	75.47	75.47	75.47	75.48
[2], 348.15 K	–	–	–	–	–	75.52	75.53	75.53	75.54	75.54
[2], 353.15 K	–	–	–	–	–	75.6	75.61	75.61	75.61	75.61
[2], 358.15 K	–	–	–	–	–	75.68	75.69	75.69	75.69	75.69
[2], 363.15 K	–	–	–	–	–	75.76	75.77	75.77	75.78	75.78
[2], 368.15 K	–	–	–	–	–	75.86	75.87	75.87	75.87	75.87
[2], 373.15 K	–	–	–	–	–	75.96	75.97	75.97	75.97	75.98
[2], 378.15 K	–	–	–	–	–	76.07	76.08	76.08	76.09	76.09
[2], 383.15 K	–	–	–	–	–	76.2	76.2	76.2	76.21	76.21
[2], 388.15 K	–	–	–	–	–	76.33	76.34	76.33	76.34	76.34
[2], 393.15 K	–	–	–	–	–	76.47	76.48	76.48	76.48	76.48

N[C@@H](CCC(=O)O)C(=O)O [L-glutamic acid] + O
Conditions	mass density, m1 = 0.00249 [kg/m3]	mass density, m1 = 0.005 [kg/m3]	mass density, m1 = 0.00999 [kg/m3]	mass density, m1 = 0.01497 [kg/m3]	mass density, m1 = 0.02005 [kg/m3]	molar heat capacity at constant pressure, m1 = 0.00249 [J/K/mol]	molar heat capacity at constant pressure, m1 = 0.005 [J/K/mol]	molar heat capacity at constant pressure, m1 = 0.00999 [J/K/mol]	molar heat capacity at constant pressure, m1 = 0.01497 [J/K/mol]	molar heat capacity at constant pressure, m1 = 0.02005 [J/K/mol]
[1], 278.15 K	1000.19	1000.25	1001.06	1000.93	1001.36	–	–	–	–	–
[1], 283.15 K	999.98	999.98	1000.74	1000.64	1001.07	–	–	–	–	–
[1], 288.15 K	999.38	999.38	1000.11	1000.03	1000.44	–	–	–	–	–
[1], 298.15 K	997.3	997.33	998.03	997.95	998.34	–	–	–	–	–
[1], 308.15 K	994.32	994.31	994.97	994.92	995.33	–	–	–	–	–
[1], 318.15 K	990.49	990.5	991.14	991.09	991.48	–	–	–	–	–
[1], 328.15 K	985.92	985.99	986.59	986.57	986.97	–	–	–	–	–
[1], 338.15 K	980.82	980.87	981.45	981.46	981.84	–	–	–	–	–
[1], 348.15 K	975.1	975.18	975.74	975.74	976.12	–	–	–	–	–
[1], 358.15 K	968.87	968.96	969.5	969.51	969.88	–	–	–	–	–
[1], 368.15 K	962.18	962.24	962.76	962.76	963.12	–	–	–	–	–
[2], 278.15 K	–	–	–	–	–	75.67	75.7	75.73	75.73	75.74
[2], 283.15 K	–	–	–	–	–	75.5	75.53	75.55	75.56	75.57
[2], 288.15 K	–	–	–	–	–	75.39	75.41	75.44	75.45	75.46
[2], 293.15 K	–	–	–	–	–	75.32	75.34	75.36	75.38	75.38
[2], 298.15 K	–	–	–	–	–	75.27	75.29	75.31	75.33	75.33
[2], 303.15 K	–	–	–	–	–	75.24	75.27	75.28	75.3	75.3
[2], 308.15 K	–	–	–	–	–	75.23	75.25	75.27	75.29	75.29
[2], 313.15 K	–	–	–	–	–	75.23	75.25	75.27	75.28	75.29
[2], 318.15 K	–	–	–	–	–	75.24	75.27	75.28	75.3	75.31
[2], 323.15 K	–	–	–	–	–	75.27	75.29	75.3	75.32	75.33
[2], 328.15 K	–	–	–	–	–	75.3	75.32	75.34	75.35	75.36
[2], 333.15 K	–	–	–	–	–	75.34	75.36	75.38	75.39	75.4
[2], 338.15 K	–	–	–	–	–	75.39	75.41	75.43	75.44	75.45
[2], 343.15 K	–	–	–	–	–	75.45	75.47	75.48	75.5	75.51
[2], 348.15 K	–	–	–	–	–	75.51	75.54	75.55	75.57	75.58
[2], 353.15 K	–	–	–	–	–	75.58	75.61	75.62	75.64	75.65
[2], 358.15 K	–	–	–	–	–	75.66	75.69	75.7	75.72	75.73
[2], 363.15 K	–	–	–	–	–	75.75	75.78	75.79	75.81	75.82
[2], 368.15 K	–	–	–	–	–	75.85	75.87	75.88	75.91	75.91
[2], 373.15 K	–	–	–	–	–	75.95	75.98	75.99	76.01	76.02
[2], 378.15 K	–	–	–	–	–	76.06	76.09	76.1	76.13	76.13
[2], 383.15 K	–	–	–	–	–	76.18	76.21	76.22	76.25	76.25
[2], 388.15 K	–	–	–	–	–	76.32	76.34	76.35	76.38	76.38
[2], 393.15 K	–	–	–	–	–	76.46	76.48	76.49	76.53	76.51
